Measured values published in patent US5663168A, “Use of compositions for combating tumour diseases” (CIBA-Geigy Corporation, priority 1993, dated 1997).

Tested on: human mammary carcinoma of the MCF-7 line
Experiment: Inhibition of the growth of a human mammary carcinoma in the mouse model
Format: in vivo, Balb/c nu/nu-mice
Description: 2×6 female Balb/c nu/nu-mice (Bomholtgard, oestrogen-stimulated with 5 mg of oestradiol in a perforated plastics tube "Silastic®" (Dow Chemical, Michigan, USA)) are implanted with tumours by subcutaneous transplantation of fragments of human mammary carcinoma (about 25 mg) of the MCF-7 line (American Type Culture Collection, Maryland, USA; see H. D. Soule et al., J. Nat. Cancer Inst. 51, 1409-1416 (1973)). After the tumours have grown to a volume of about 30 to 100 mm^3 (after 13 days), 6 mice (test group) are each given twice dally over a period of 25 days a dose of 50 mg/kg of Boc-Phe[C]Phe-(L)-Val-(L)-Phe-morpholin-4-ylamide (dissolved in a concentration of 2 mg/ml in a 5% solution of dimethyl sulfoxide and 20% hydroxypropyl-β-cyclodextrin in water, prepared by dissolution of the test compound in dimethyl sulfoxide and dilution with aqueous hydroxypropyl-β-cyclodextrin solution). […] After 25 days (50 administrations) the following tumour volumes (mean value) are determined:
The tumour growth is determined by measuring the diameter along the longitudinal axis of the tumour (L) and perpendicular thereto (D) (in a living animal by means of a calliper gauge). The tumour volumes are calculated in accordance with the formula π×L×D^2 /6 (Evans, B. D., et al., Brit. J. Cancer 45, 466-468 (1982)).

“Boc-Phe[C]Phe-(L)-Val-(L)-Phe-morpholin-4-ylamide” was tested, and the “tumour growth in comparison with the control group” value (MCF-7 tumours in female Balb/c nu/nu-mice, 50 mg/kg orally twice daily for 25 days) was “marked reduction in tumour growth” and the “tumour volume (mean value)” value (subcutaneous MCF-7 tumour fragments in oestrogen-stimulated female Balb/c nu/nu-mice, 50 mg/kg orally twice daily, after 25 days (50 administrations), placebo control 0.96 cm^3) was 0.30 cm^3.
